Experimental data published in article PMC10829382, “Purification and characterization of L-arginine deiminase from Penicillium chrysogenum” (BMC Microbiology, 2024).

Experiments:
[1] = target: T1, L-arginine deiminase (ADI) from Penicillium chrysogenum; assay: ammonia release, Nessler's reagent, […] nm; residual activity at […]; assay type: biochemical
T1 construct: single 49 kDa band on SDS-PAGE

[2] = system: T1, L-arginine deiminase (ADI) from Penicillium chrysogenum; assay: ammonia release, Nessler's reagent, […] nm; Eadie-Hofstee plot; assay type: biochemical; details: 40 °C, 30 min; phosphate buffer pH 7.5 in the standard assay
[3] = chelator in the reaction mixture, L-arginine as substrate, 40 °C

O=C(O)CN(CCN(CC(=O)O)CC(=O)O)CC(=O)O [EDTA]
IC50 [1, 3]: 5.19 mM

N=C(N)NCCC[C@H](N)C(=O)O [L-arginine]
Km [2]: 750 µM

CC(=O)n1ccnc1 [N-acetyl-imidazole]
IC50 ([1]; covalent, tyrosyl modifier, 150 mM phosphate pH 7.5, 37 °C, 20 min): 5.4 mM

O=C1CCC(=O)N1Br [N-bromosuccinimide]
IC50 ([1]; covalent, tryptophanyl modifier, 1 h in 150 mM phosphate pH 7.5, then dialysed before assay): 5 mM

CCN1C(=O)C=CC1=O [N-ethylmaleimide]
IC50 ([1]; covalent, sulfhydryl modifier, pre-incubated 1 h at 25 °C, 100 mM Tris-HCl pH 5.0, 1 mM EDTA): 4.95 mM

CC(=O)C(C)=O [butanedione]
IC50 ([1]; covalent, arginyl modifier, 50 mM sodium borate pH 7.0, room temperature): 4.66 mM

CN(C)c1cccc2c(S(=O)(=O)Cl)cccc12 [dansyl chloride]
IC50 ([1]; covalent, lysyl modifier, 100 mM Tris-HCl pH 7.0, 4 °C, 1 h): 6.48 mM

CCOC(=O)OC(=O)OCC [diethylpyrocarbonate]
IC50 ([1]; covalent, histidyl modifier, assay buffer, 25 °C, 5 min): 6.44 mM

c1cnc2c(c1)ccc1cccnc12 [o-phenanthroline]
IC50 [1, 3]: 4.79 mM

c1ccc(-c2ccccn2)nc1 [α,α-dipyridyl]
IC50 [1, 3]: 7.46 mM
